By EC50 is commonly meant the concentration needed to bring the measured effect to its halfway point. The low end stands for higher potency in that assay, the high end for lower potency in that assay.

Drawing on ChEMBL document CHEMBL1147472, “Design, synthesis, and evaluation of a new class of noncyclic 1,3-dicarbonyl compounds as PPARalpha selective activators” (Bioorg Med Chem Lett, 2004), this text covers EC50, Max response and Reduction for 21 compounds.

Structures are written as SMILES.

Assay [1] addresses T1, Peroxisome proliferator-activated receptor gamma (Homo sapiens, UniProt P37231).
T1 sequence (P37231 whole entry): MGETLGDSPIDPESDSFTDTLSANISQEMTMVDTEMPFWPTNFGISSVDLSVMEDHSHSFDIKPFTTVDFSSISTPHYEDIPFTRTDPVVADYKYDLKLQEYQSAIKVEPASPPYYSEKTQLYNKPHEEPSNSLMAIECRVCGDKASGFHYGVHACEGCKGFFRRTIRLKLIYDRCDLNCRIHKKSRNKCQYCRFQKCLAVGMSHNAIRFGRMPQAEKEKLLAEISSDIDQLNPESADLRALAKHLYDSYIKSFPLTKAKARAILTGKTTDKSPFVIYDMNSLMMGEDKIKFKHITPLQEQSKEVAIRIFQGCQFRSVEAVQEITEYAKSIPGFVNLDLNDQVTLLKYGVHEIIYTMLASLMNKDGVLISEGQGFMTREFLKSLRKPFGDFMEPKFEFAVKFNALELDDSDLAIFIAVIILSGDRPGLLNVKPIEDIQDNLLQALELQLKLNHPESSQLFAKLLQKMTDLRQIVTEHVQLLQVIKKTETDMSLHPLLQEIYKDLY
The assay can be described thus: In vitro transcription activation on human peroxisome proliferator activated receptor-gamma (PPAR gamma).

For assay [2], the target named is T2, Peroxisome proliferator-activated receptor delta (Homo sapiens, UniProt Q03181).
T2 sequence (Q03181 whole entry): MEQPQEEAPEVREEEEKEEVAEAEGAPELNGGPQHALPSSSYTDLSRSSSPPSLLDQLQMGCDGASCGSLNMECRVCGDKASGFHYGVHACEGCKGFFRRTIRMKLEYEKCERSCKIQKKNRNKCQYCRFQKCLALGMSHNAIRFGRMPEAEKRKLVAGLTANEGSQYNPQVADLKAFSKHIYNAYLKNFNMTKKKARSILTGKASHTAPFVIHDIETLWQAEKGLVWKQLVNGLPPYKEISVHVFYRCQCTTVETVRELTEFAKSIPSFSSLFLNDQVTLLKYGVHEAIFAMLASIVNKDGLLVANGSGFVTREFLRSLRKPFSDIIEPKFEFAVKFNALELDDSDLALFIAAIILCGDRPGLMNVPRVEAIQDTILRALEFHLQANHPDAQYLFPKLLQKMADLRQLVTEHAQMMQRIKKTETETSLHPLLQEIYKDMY
The assay can be described thus: In vitro transcription activation on human peroxisome proliferator activated receptor-delta (PPAR delta).

Assay [3] concerns the target T3, Peroxisome proliferator-activated receptor alpha (Homo sapiens, UniProt Q07869).
T3 sequence (Q07869 whole entry): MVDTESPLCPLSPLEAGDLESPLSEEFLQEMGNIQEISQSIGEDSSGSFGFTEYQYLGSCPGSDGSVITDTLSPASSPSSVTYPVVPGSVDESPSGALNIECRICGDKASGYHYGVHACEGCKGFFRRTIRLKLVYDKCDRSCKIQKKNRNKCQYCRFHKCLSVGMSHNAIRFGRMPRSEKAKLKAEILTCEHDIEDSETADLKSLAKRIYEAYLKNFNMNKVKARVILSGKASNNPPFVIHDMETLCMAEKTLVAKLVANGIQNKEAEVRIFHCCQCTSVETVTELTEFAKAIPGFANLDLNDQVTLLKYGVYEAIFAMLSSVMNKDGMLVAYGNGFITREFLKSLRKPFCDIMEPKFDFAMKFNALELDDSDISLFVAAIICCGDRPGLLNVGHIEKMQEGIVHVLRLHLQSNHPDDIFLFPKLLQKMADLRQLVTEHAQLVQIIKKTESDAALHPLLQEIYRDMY
As to the kind of experiment: In vitro transcription activation on human peroxisome proliferator activated receptor-alpha (PPAR alpha); Inactive.

Assay [4] has as its target T1, Peroxisome proliferator-activated receptor gamma.
Assay [5] concerns the target T4, Peroxisome proliferator-activated receptor alpha (Homo sapiens) (UniProt Q07869).
T4 sequence (whole entry): T3 sequence (Q07869 whole entry)
The assay can be described thus: (§1) In vitro transcription activation on human peroxisome proliferator activated receptor-alpha (PPAR alpha).

The target of assay [6] is T2, Peroxisome proliferator-activated receptor delta. The assay can be described thus: In vitro transcription activation on human peroxisome proliferator activated receptor-delta (PPAR delta); Inactive.
Assay [7] has as its target T3, Peroxisome proliferator-activated receptor alpha. Described as §1.
Assay [8] deals with T2, Peroxisome proliferator-activated receptor delta. As to the kind of experiment: In vitro transcriptional activation by human peroxisome proliferator activated receptor-delta (PPAR delta; Inactive.
For assay [9], the system named is Mus musculus. The assay can be described thus: In vivo effect on blood glucose level in mice at a dose of 20 mg/kg by oral administration after two week. Type of assay: functional.
Assay [10] concerns Mus musculus. The assay can be described thus: In vivo effect on blood glucose level in mice at a dose of 30 mg/kg by oral administration after two week. Type of assay: functional.
Assay [11] concerns Mus musculus. The assay can be described thus: In vivo effect on blood glucose level in mice at the dose of 5 mg/kg by oral administration after two week. Type of assay: functional.
Assay [12] concerns Mus musculus. As to the kind of experiment: In vivo effect on blood glucose level in mice at a dose of 10 mg/kg by oral administration after two week. The class given is functional.

Turning to `COC(=O)C(Cc1ccc(OCCOc2ccc3c(c2)CCCC3)cc1)C(=O)O` (configuration not stated), the concentration for a half-maximal effect (EC50) in [1] is 0.69 µM; in assay [2], 2.45 µM; in assay [3] it was “Not Active”.

With `Cc1cccc(Nc2cc(Cl)nc(SCC(=O)O)n2)c1C` [PIRINIXIC ACID], the EC50 entry in assay [4] is listed as “Not Active”. In addition, in assay [5], the Max response is 100%.

As to `CC1(C)CCC(C)(C)c2cc(OCCOc3ccc(CC(C(N)=O)C(=O)O)cc3)ccc21` (configuration not stated), the EC50 result in assay [4], in [6] and in assay [3] was “Not Active” each time.

Consider `CC1(C)CCC(C)(C)c2cc(OCCOc3ccc(CC(C(=O)O)C(=O)O)cc3)ccc21`, for which the concentration giving a half-maximal response (EC50) is 2.05 µM in assay [1], “Not Active” in [6] and “Not Active” in assay [3].

Turning to `COC(=O)C(Cc1ccc(OCCOc2ccc3c(c2)CCCC3)cc1)C(N)=O` (configuration not stated), the 50% effective concentration (EC50) was 3.43 µM in assay [1], “Not Active” in [6] and “Not Active” in [3].

Take `Cc1oc(-c2ccccc2)nc1CCOc1ccc(CC2C(=O)NOC2=O)cc1` (configuration not stated) [REGLITAZAR]: the EC50 result in [6] was “Not Active”.

For the compound `COC(=O)C(Cc1ccc(OCCOc2ccc3c(c2)C(C)(C)CCC3(C)C)cc1)C(N)=O` (configuration not stated), the results for the EC50 in assay [1], in [6] and in assay [3] were 0.83 µM, “Not Active” and “Not Active”, respectively.

Turning to `NC(=O)C(Cc1ccc(OCCOc2ccc3c(c2)NCCC3)cc1)C(=O)O` (configuration not stated), the 50% effective concentration (EC50) in assay [1] was found to be 2.88 µM; in assay [7] it was 0.14 µM; in assay [2], 3.62 µM. The compound also showed a Max response in assay [5] of 210%.

In the case of `COC(=O)C(Cc1ccc(OCCOc2ccc3c(c2)C(C)(C)CCC3(C)C)cc1)C(=O)O` (configuration not stated), the EC50 in assay [1] was 0.09 µM; in assay [6] it was “Not Active”; in assay [3] it was “Not Active”.

As to `O=C(O)C(Cc1ccc(OCCOc2ccc3ccccc3c2)cc1)C(=O)O`, the EC50 entry in [4], in [8] and in assay [3] was “Not Active” in each case.

Consider `NC(=O)C(Cc1ccc(OCCOc2ccc3ccccc3c2)cc1)C(=O)O` (configuration not stated), for which the EC50 amounted to 3.02 µM in assay [1], 0.25 µM in assay [7] and 2.63 µM in [2]. Besides, the Reduction in the assay with Mus musculus [9] is recorded as 42.22%. In addition, in assay [5], the Max response was found to be 213%.

In the case of `COC(=O)C(Cc1ccc(OCCOc2ccc3c(c2)CCCC3)cc1)C(=O)OC`, the Reduction in the assay on Mus musculus [10] worked out at 38.15%. For the same compound, the EC50 in assay [1] was determined as 1.5 µM; in assay [7], 0.03 µM; in [2], 3.31 µM. The same compound returned a Max response in [5] of 210%.

For `CCCCCCCCCCCCCCC(Br)C(=O)O` (configuration not stated), the EC50 in [2] was 3.72 µM.

On to `COC(=O)C(Cc1ccc(OCCOc2ccc3c(c2)NCCC3)cc1)C(=O)O` (configuration not stated), for which the EC50 in assay [1] amounted to 3.8 µM; in assay [7], 0.09 µM; in [2], 3.09 µM. In assay [5], this compound registered a Max response of 207%.

`COC(=O)C(Cc1ccc(OCCOc2ccc3c(c2)C(C)(C)CCC3(C)C)cc1)C(=O)OC`: the results for the EC50 in assay [1], in assay [6] and in [3] were 0.15 µM, “Not Active” and “Not Active”, respectively.

As to `O=C(O)C(Cc1ccc(OCCOc2ccc3c(c2)NCCC3)cc1)C(=O)O`, the EC50 entry in assay [4], in assay [6] and in assay [3] was “Not Active” each time.

As to `COC(=O)C(Cc1ccc(OCCOc2ccc3ccccc3c2)cc1)C(=O)O` (configuration not stated), the EC50 in assay [1] came to 1.12 µM; in assay [7], 0.044 µM; in assay [2] it was 1.05 µM. In addition, the Max response in [5] worked out at 264%.

The compound `CN(CCOc1ccc(CC2SC(=O)NC2=O)cc1)c1ccccn1` (configuration not stated) [ROSIGLITAZONE] showed a Reduction with Mus musculus [11] of 62.96%.

On to `COC(=O)C(Cc1ccc(OCCOc2ccc3c(c2)NCCC3)cc1)C(=O)OC`, for which the concentration giving a half-maximal response (EC50) worked out at 3.16 µM in [1], 0.17 µM in [7] and 3.16 µM in assay [2]. This compound also displayed a Max response in [5] of 215%.

With `O=C(O)C(Cc1ccc(OCCOc2ccc3c(c2)CCCC3)cc1)C(=O)O`, the EC50 in assay [1] was 2.11 µM; in [2], 4.68 µM; in assay [3], “Not Active”.

For `COC(=O)C(Cc1ccc(OCCOc2ccc3ccccc3c2)cc1)C(=O)OC`, the Reduction in the assay on Mus musculus [10] turned out to be 46.76%; in the assay with Mus musculus [12], 35.08%. Also, the figures for the half-maximal effective concentration (EC50) in [1], in [7] and in assay [2] were 0.53 µM, 0.07 µM and 1.27 µM, respectively. The same compound registered a Max response in [5] of 264%.
